From patent publication US6300368A, “Anilide derivatives and antiarrhythmic agents containing the same” (priority 1998, dated 2001)
Like-named read-outs stand apart in the source and are kept apart here.

Tests used:
[1] = system: Purkinje's fiber; experiment: Effects on ventricle: action potential of Purkinje's fiber from dog right ventricular free wall (Pharmacological Trial 2); assay type: cell-based; conditions: Canis lupus familiaris
Description: Pharmacological Trial 2: Evaluation of Effects on Ventricle
Method: Purkinje's fiber specimen excised from the right ventricular free wall of dog, perfused with normal Tyrode solution and driven by electrical stimulation (fundamental frequency=1 Hz) was used. Standard glass microelectrode was used to record action potential.

[2] = system: ventricular function; conditions: cited from earlier work

Structure (SMILES): CN(CCOc1ccc(NS(C)(=O)=O)cc1)CCc1ccc(NS(C)(=O)=O)cc1 [Dofetilide]
- activation at 10 µM ([1]; read-out: extension of APD50 (duration to repolarize 50%)): 57%
- activation at 10 µM ([1]; read-out: extension of APD75 (duration to repolarize 75%)): 45%
- activation at 10 µM ([1]; read-out: extension of APD90 (duration to repolarize 90%)): 42%

Structure (SMILES): CC(=O)Nc1ccc(OCCNC(C)C)cc1.Cl [Reference 1, 4'-[2-(Isopropylamino)ethoxy]acetanilide Hydrochloride]
- action on ventricular function [2]: act suppressively on ventricular function
- inhibition at 30 µM ([1]; 30 μM, read-out: suppression of Vmax (maximum rate of rise for action potential)): 15%

Structure (SMILES): CC(=O)Nc1ccc(OCCNC2CCCCC2)cc1 [4'-[2-(cyclohexylamino)ethoxy] acetanilide]
- action on ventricular function [2]: act suppressively on ventricular function

Structure (SMILES): O=C(NCC1CCCCN1)c1cc(OCC(F)(F)F)ccc1OCC(F)(F)F (centres unmarked) [Flecanide]
- inhibition at 3 µM ([1]; 3 μM, read-out: suppression of Vmax (maximum rate of rise for action potential)): 30%

Structure (SMILES): CC(C)N(CCC(C(N)=O)(c1ccccc1)c1ccccn1)C(C)C (centres unmarked) [Disopyramido]
- inhibition at 30 µM ([1]; read-out: suppression of Vmax (maximum rate of rise for action potential)): 33%
